“Also recorded” adds a separate entry of the source.
Legend:
[1] = test system: GB1a/2 receptors in HEK293T cells; experiment: APP17-TMR binding / displacement at GB1a/2 receptors in HEK293T cells; details: 10 μM peptide
Description: Transfected HEK293T cells expressing Flag-GB1a and Flag-GB2 were seeded into 96-well microplates (Greiner Bio-One, Kremsmünster, Austria) at 50,000 cells/well. After 18 hr, peptides were mixed with conditioned medium at the following final concentrations: APP17-TMR (1 µM) with either APP17 (10 µM), sc-APP17 (10 µM), or PBS (vehicle); sc-APP17-TMR (1 µM) in PBS was used as a negative control. After removal of medium, peptide mixes were added to the wells and cells incubated in the dark for 1 hr at room temperature. After removal of the peptides, PBS with MgCl2 and CaCl2 (Sigma-Aldrich) was added to the wells. TMR fluorescence was monitored with a Spark microplate reader (Tecan Group, Männerdorf, Switzerland) using a monochromator (Excitation 544 nm, […] bandwidth; detection […], 25 nm bandwidth). TMR fluorescence was determined after subtraction of the sc-APP17-TMR fluorescence measured at HEK293T cells transfected with pCI plasmid.

[2] = target: T1, GB1a/2 receptors (Homo sapiens, UniProt O75899+Q9UBS5); experiment: inter-subunit FRET conformational sensor (HA-GB1a-ACP / Flag-SNAP-GB2) in HEK293T cells; details: for Fig. 2c value, 10mM GABA / Fig. 2c value, Basal: + Vehicle Basal given as 100; for Fig. 2c value, Basal: Basal (no GABA)
T1 sequence (Q9UBS5 15-961 limits assumed): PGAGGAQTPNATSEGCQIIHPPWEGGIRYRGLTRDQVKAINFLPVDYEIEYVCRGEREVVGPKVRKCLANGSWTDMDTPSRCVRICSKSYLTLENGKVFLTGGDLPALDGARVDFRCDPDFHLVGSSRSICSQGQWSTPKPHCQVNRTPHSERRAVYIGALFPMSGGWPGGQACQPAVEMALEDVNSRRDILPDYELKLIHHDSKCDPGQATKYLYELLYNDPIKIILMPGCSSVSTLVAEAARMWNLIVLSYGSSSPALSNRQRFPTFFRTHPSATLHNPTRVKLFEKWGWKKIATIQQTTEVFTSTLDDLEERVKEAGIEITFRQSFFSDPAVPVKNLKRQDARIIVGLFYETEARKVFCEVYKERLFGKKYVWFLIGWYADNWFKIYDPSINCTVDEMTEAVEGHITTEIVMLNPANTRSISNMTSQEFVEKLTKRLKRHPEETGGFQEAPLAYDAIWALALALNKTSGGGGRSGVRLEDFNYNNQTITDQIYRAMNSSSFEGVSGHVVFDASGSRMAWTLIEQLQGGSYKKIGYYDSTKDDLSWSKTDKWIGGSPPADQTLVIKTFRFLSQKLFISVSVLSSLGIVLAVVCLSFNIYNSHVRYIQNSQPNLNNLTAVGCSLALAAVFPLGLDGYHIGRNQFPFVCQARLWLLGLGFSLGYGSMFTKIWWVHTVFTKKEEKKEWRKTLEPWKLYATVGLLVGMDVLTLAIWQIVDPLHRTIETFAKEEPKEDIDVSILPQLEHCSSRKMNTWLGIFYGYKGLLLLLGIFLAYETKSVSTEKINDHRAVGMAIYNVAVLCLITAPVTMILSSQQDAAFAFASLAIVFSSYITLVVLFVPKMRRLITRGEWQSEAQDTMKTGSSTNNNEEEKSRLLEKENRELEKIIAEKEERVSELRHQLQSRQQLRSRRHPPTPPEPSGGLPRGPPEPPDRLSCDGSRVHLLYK
T1 sequence (O75899 42-941 partner): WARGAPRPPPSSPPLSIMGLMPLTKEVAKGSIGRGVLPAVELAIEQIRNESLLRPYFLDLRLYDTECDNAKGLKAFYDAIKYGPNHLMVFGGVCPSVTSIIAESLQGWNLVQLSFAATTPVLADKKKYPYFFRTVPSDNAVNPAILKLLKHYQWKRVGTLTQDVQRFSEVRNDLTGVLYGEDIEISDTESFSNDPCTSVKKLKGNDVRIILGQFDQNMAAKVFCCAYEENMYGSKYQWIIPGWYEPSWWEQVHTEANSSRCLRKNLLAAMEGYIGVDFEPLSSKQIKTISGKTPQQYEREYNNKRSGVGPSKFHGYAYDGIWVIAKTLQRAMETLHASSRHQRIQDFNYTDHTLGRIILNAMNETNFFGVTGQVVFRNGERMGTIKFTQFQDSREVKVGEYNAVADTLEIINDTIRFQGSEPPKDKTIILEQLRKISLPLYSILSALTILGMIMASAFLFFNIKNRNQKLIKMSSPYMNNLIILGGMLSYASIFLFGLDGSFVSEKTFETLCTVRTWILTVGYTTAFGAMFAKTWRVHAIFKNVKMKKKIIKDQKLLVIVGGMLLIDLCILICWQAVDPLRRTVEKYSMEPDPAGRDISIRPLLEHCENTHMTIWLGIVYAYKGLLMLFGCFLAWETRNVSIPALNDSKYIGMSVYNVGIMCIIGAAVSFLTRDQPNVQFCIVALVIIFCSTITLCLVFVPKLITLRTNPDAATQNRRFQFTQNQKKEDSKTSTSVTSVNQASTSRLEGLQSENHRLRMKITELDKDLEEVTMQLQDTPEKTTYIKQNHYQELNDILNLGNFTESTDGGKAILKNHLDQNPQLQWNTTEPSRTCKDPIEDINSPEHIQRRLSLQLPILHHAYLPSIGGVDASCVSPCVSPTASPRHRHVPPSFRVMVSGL

[3] = target: T1, GB1a/2 receptors; experiment: PKA luminescence assay (R-RLuc-N / C-RLuc-C) of Gαi signaling in HEK293T cells
[4] = test system: mEPSCs in brain slices / cultured hippocampal neurons; details: cultured hippocampal neurons APP17 250 nM, ref Rice et al., 2019; cited from earlier work
Text: GBRs are composed of a GB1a or GB1b subunit with a GB2 subunit, which generates heterodimeric GB1a/2 and GB1b/2 receptors ([Pin and Bettler, 2016]). GB1a differs from GB1b by the presence of two N-terminal sushi domains (SD1/2). GB1a/2 and GB1b/2 receptors predominantly localize to pre- and postsynaptic sites, respectively ([Vigot et al., 2006]). APP and sAPP bind to SD1 of GB1a ([Schwenk et al., 2016]; [Dinamarca et al., 2019]; [Rice et al., 2019]). Synthetic APP peptides of 9 or 17 amino acid residues, termed APP9 and APP17, are sufficient for binding and inducing a stable conformation in SD ... || GB1a/2 receptors are abundant at axon terminals where they inhibit neurotransmitter release ([Vigot et al., 2006]). […] A GBR antagonist blocked the effect of APP17 on the mEPSC frequency, supporting a GBR-dependent mechanism.

[5] = test system: mEPSCs of cultured hippocampal neurons; experiment: mEPSC frequency in cultured hippocampal neurons; type: cell-based, mouse; details: APP17 250 nM, 0.5 μM TTX, DIV13–16
Description: GB1a/2 receptors are abundant at axon terminals where they inhibit neurotransmitter release ([Vigot et al., 2006]). […] A GBR antagonist blocked the effect of APP17 on the mEPSC frequency, supporting a GBR-dependent mechanism. […] We additionally studied whether APP17 at 250 nM influences eEPSC amplitudes in acute hippocampal slices. Postsynaptic GBR-activated K^+ currents were blocked with a Cs^+-based intracellular solution, which allowed to specifically monitor the activity of presynaptic GBRs.
Neuronal cultures and HEK293T cells were prepared as described ([Dinamarca et al., 2019]). Coverslips with hippocampal neurons (DIV 12–15) or HEK293T cells were transferred to a chamber containing a low-K^+ bath solution (in mM): 145 NaCl, 4 KCl, 5 HEPES, 5.5 D-glucose, 1 MgCl2, and 1.8 CaCl2 (pH 7.4 adjusted with NaOH). Recordings were performed at room temperature using borosilicate pipettes of 3–5 MΩ resistance tips, filled with K-gluconate-based pipette solution (in mM): 150 K-gluconate, 1.1 EGTA, 10 HEPES, 10 Tris-phosphocreatine, 0.3 NaGTP, and 4 MgATP (pH 7.2 adjusted with KOH). […] Evoked EPSCs were recorded at –60 mV with a Cs^+-based intracellular solution. […] We recorded mEPSCs in primary neuronal cultures established from embryonic (E15–17) murine hippocampus at DIV13–16 in the presence of 0.5 μM TTX at room temperature ([Dinamarca et al., 2019]). […]

[6] = test system: CA1 pyramidal cells; details: anesthetized mice, two-photon Ca^2+ imaging; ref Rice et al., 2019; cited from earlier work
Text: GBRs are composed of a GB1a or GB1b subunit with a GB2 subunit, which generates heterodimeric GB1a/2 and GB1b/2 receptors ([Pin and Bettler, 2016]). GB1a differs from GB1b by the presence of two N-terminal sushi domains (SD1/2). GB1a/2 and GB1b/2 receptors predominantly localize to pre- and postsynaptic sites, respectively ([Vigot et al., 2006]). APP and sAPP bind to SD1 of GB1a ([Schwenk et al., 2016]; [Dinamarca et al., 2019]; [Rice et al., 2019]).

In the case of Ac-DDSDVWWGGADTDYADG-NH2 [APP17], the “displacement of 1 μM APP17-TMR from GB1a/2 receptors (in words)” value [1] is reported as “displaced 1 μM APP17-TMR from GB1a/2 receptors”, the “Fig. 2c value, 10mM GABA” value ([2]; 1 µM peptide with 10mM GABA, replicate 2) is reported as 28.98 and the “Fig. 2c value, 10mM GABA” value ([2]; 1 µM peptide with 10mM GABA, replicate 3) is reported as 58.07. The “Fig. 2c value, 10mM GABA” value ([2]; 1 µM peptide with 10mM GABA, replicate 4) was 49.76, the “Fig. 2c value, 10mM GABA” value ([2]; 1 µM peptide with 10mM GABA, replicate 5) was 60.83 and the “Fig. 2c value, 10mM GABA” value ([2]; 1 µM peptide with 10mM GABA, replicate 6) was 55.36. For the same substance, the “Fig. 2c value, Basal” value ([2]; 1 µM peptide, replicate 1) was 103.3, the “Fig. 2c value, Basal” value ([2]; 1 µM peptide, replicate 2) was 101 and the “Fig. 2c value, Basal” value ([2]; 1 µM peptide, replicate 3) was 107.6. The “Fig. 2c value, Basal” value ([2]; 1 µM peptide, replicate 4) was 115.2, the “Fig. 2c value, Basal” value ([2]; 1 µM peptide, replicate 5) was 132.7 and the “Fig. 2c value, Basal” value ([2]; 1 µM peptide, replicate 6) was 111.9. For the same substance, the “Fig. 2c value, 10mM GABA” value ([2]; 10 µM peptide with 10mM GABA, replicate 1) was 63.47, the “Fig. 2c value, 10mM GABA” value ([2]; 10 µM peptide with 10mM GABA, replicate 2) was 34.4 and the “Fig. 2c value, 10mM GABA” value ([2]; 10 µM peptide with 10mM GABA, replicate 3) was 49.12. For the same substance, the “Fig. 2c value, 10mM GABA” value ([2]; 10 µM peptide with 10mM GABA, replicate 4) was 59.27, the “Fig. 2c value, 10mM GABA” value ([2]; 10 µM peptide with 10mM GABA, replicate 5) was 68.45 and the “Fig. 2c value, 10mM GABA” value ([2]; 10 µM peptide with 10mM GABA, replicate 6) was 59.22. For the same substance, the “Fig. 2c value, Basal” value ([2]; 10 µM peptide, replicate 1) was 120, the “Fig. 2c value, Basal” value ([2]; 10 µM peptide, replicate 2) was 119.3 and the “Fig. 2c value, Basal” value ([2]; 10 µM peptide, replicate 3) was 127.7. The “Fig. 2c value, Basal” value ([2]; 10 µM peptide, replicate 4) was 117.6, the “Fig. 2c value, Basal” value ([2]; 10 µM peptide, replicate 5) was 144.4 and the “Fig. 2c value, Basal” value ([2]; 10 µM peptide, replicate 6) was 124.3. For the same substance, the “FRET in the presence of 10 mM GABA (in words)” value ([2]; 1 or 10 μM peptide + 10 mM GABA) was “no significant differences in FRET”, the “FRET, basal, peptide alone (in words)” value ([2]; 1 or 10 μM peptide without GABA) was “significantly increased instead of decreased FRET; also recorded: significant increase of FRET” and the “effect on GABA potency (in words)” value ([2]; LogEC50 of GABA dose-response) was “did not significantly alter GABA potency”. For the same substance, the “GABA-mediated PKA inactivation in presence of peptide (in words)” value ([3]; 10 μM peptide) was “GABA-mediated PKA inactivation was comparable”, the “effect of peptide alone on luminescence/receptor activity (in words)” value ([3]; 10 μM peptide) was “no agonistic, inverse agonistic, or antagonistic properties” and the “receptor activity with APP695 in cis (in words)” value ([3]; peptide, APP695 in cis) was “did not significantly alter GB1/2 receptor activity”. The “mEPSC frequency (in words)” value [4] was “reduce the frequency of mEPSCs; also recorded: reduced the frequency of miniature excitatory postsynaptic currents (mEPSCs) in brain slices”, the “mEPSC frequency (in words)” value [5] was “unable to detect a significant effect of APP17 on the mEPSC frequency” and the “neuronal activity (in words)” value [6] was “suppresses neuronal activity of CA1 pyramidal cells in anesthetized mice; also recorded: inhibited neuronal activity in the hippocampus of anesthetized mice”.

From PMC9917443 (eLife, 2023)
